Where a SMILES comes first, the peptide text is derived from it. Bridges are numbered along the chain shown (N, C = ends). Roman numbers before positions name the chains, in order. Where no end group is shown, it is not given here.
What was measured:
[1] = system: Candida albicans cells; experiment: Confocal microscopy localization and FITC-peptide/PI uptake assay; assay type: cell-based; details: FITC-peptides and propidium iodide uptake assay, measured for 60 min
Protocol: To confirm the killing effect of the peptides, washed Candida cells (1 × 10^7 cells/ml) were treated with the peptides and propidium iodide (PI) was added. For energy depletion experiments, cells were pre-incubated with 10 mM NaPB containing 5 mM NaN3 at 30°C for 60 min before the addition of peptides. Propidium iodide (PI) uptake was measured using a multi reader and calculated with the formula [propidium iodide (PI) uptake value of peptide-treated cells—propidium iodide (PI) value of control cells] C. albicans cells were attached to concanavalin A (Sigma, 1 mg/ml solution in water) coated coverglass in chambered wells (Lab-Tek II). Cells (1 x 10^6) were deposited in each well, and 1 ml of 10 mM NaPB containing 5 μg PI (Sigma) and FITC-labeled peptides (Final concentration 10 μg/ml) were added to the chamber. Confocal images were acquired with an Olympus Fluoview FV10i-DOC (Olympus, Tokyo, Japan). ImageJ software was used for image acquisition and analysis.  Fig 5 Localizations of FITC-peptides in Candida albicans cells. C. albicans cells were incubated for 10 minutes with 10 μg/ml of FITC-peptides and visualized by confocal microscopy. […] FITC-peptides and PI uptake was measured for 60 min in Perkin Elmer 2030 reader (VictorX 3).

[2] = system: laminarin (β-1,3-glucan polymer), C. albicans cell wall component; experiment: Binding/radial diffusion assay with laminarin; assay type: cell-based; details: peptide final 180 μg/ml, pre-incubated 2 h at 37°C, radial diffusion assay
Protocol: The candidacidal activities of the peptides were tested by using standard microdilution plate assays, radial diffusion assays and broth dilution assay slightly modified from the procedure recommended by the National Committee for Clinical Laboratory Standards. For the candidacidal assays, C. albicans cells were grown in YPD medium and washed twice with 10 mM sodium phosphate buffer (NaPB; Na2HPO4, NaH2PO4, pH 7.4). The cells (1 x 10^6) were then mixed with different concentrations of peptides and incubated at 30°C with constant shaking for 60 min. For energy depletion experiments, cells were pre-incubated with 10 mM NaPB containing 5 mM NaN3 at 30°C for 60 min before the addition of peptides. The cell suspensions were diluted in 10 mM NaPB and aliquots of 500 cells were spread onto YPD agar plates then incubated for 24 h at 30°C to visualize the surviving colonies. Cell survival was expressed as a percentage of that for the control, and the loss of viability was calculated as [1 x (number of colonies from peptide-treated cells/number of colonies from control cells)] x 100. Candidacidal assays were performed in triplicate. For the radial diffusion assay, C. albicans cells were grown in YPD medium overnight and washed twice with 10 mM NaPB. Washed yeast-phase C. albicans cells (1 x 10^6 CFU) were trapped in thin underlay gels containing 9 mM sodium phosphate, 1 mM sodium citrate buffer, 1% (wt/vol) agarose (A6013; Sigma), and 0.3 mg of Sabouraud dextrose broth (Difco)/ml. After incubation at 37°C for 3 h, a 10 ml overlay gel of 1% agarose and 6% Sabouraud dextrose broth was poured on the underlay gel and then the plates were incubated overnight at 37°C. The clear-zone diameters were measured to the nearest 0.1 mm and graphed against the peptide concentration. Zone diameters were expressed in units (0.1 mm = 1 unit). For the broth dilution assay, the Candida strains were cultured in LYM broth for 18 h at 30°C. The numbers of yeasts were counted using a hemocytometer. Stock peptide solutions were prepared to a concentration of 320 μg/ml in distilled water, and were then serially diluted twofold, to 5 μg/ml. 100 μl aliquots of the diluted culture media containing candida cells (1 x 10^3) were dispensed into the wells of 96-well polypropylene microtiter plates (Costar 3879, Corning, NY), to which peptide solution (11 μl) was then added. […] The antifungal activities were evaluated after 24 h of incubation at 30°C by the observation of visible turbidity the wells. The MIC values were expressed as intervals (a–b), with a representing the highest tested concentration at which microbes continue to grow, and b representing the lowest concentration at which growth inhibition could be detected.
Binding of hybrid peptides to the surface of C. albicans cells was examined by assessing the inhibitory effect of fungal cell wall components on the antimicrobial activity of the hybrid peptides. 20 μl of a pre-determined concentration of the peptides was added to 80 μl of each polysaccharide (0.07–40 mg/ml in 10 mM NaPB) including laminarin (β-1,3-glucan polymer; Sigma), pustulan (β-1,6-glucan polymer; Calbiochem) or mannan (mannose polymer; Sigma) and incubated for 2 h at 37°C. The inhibitory effects of the polysaccharides on the antimicrobial activity of the peptides were assessed by radial diffusion assay as described above. […]

[3] = system: Candida cells; experiment: Candidacidal activity in energy depleted (azide) cells; assay type: cell-based, Candida albicans; details: cells pre-incubated for 60 min in 5 mM NaN3 at 30°C, colony count assay
Protocol: The candidacidal activities of the peptides were tested by using standard microdilution plate assays, radial diffusion assays and broth dilution assay slightly modified from the procedure recommended by the National Committee for Clinical Laboratory Standards. For the candidacidal assays, C. albicans cells were grown in YPD medium and washed twice with 10 mM sodium phosphate buffer (NaPB; Na2HPO4, NaH2PO4, pH 7.4). The cells (1 x 10^6) were then mixed with different concentrations of peptides and incubated at 30°C with constant shaking for 60 min. For energy depletion experiments, cells were pre-incubated with 10 mM NaPB containing 5 mM NaN3 at 30°C for 60 min before the addition of peptides. The cell suspensions were diluted in 10 mM NaPB and aliquots of 500 cells were spread onto YPD agar plates then incubated for 24 h at 30°C to visualize the surviving colonies. Cell survival was expressed as a percentage of that for the control, and the loss of viability was calculated as [1 x (number of colonies from peptide-treated cells/number of colonies from control cells)] x 100. Candidacidal assays were performed in triplicate. For the radial diffusion assay, C. albicans cells were grown in YPD medium overnight and washed twice with 10 mM NaPB. Washed yeast-phase C. albicans cells (1 x 10^6 CFU) were trapped in thin underlay gels containing 9 mM sodium phosphate, 1 mM sodium citrate buffer, 1% (wt/vol) agarose (A6013; Sigma), and 0.3 mg of Sabouraud dextrose broth (Difco)/ml. After incubation at 37°C for 3 h, a 10 ml overlay gel of 1% agarose and 6% Sabouraud dextrose broth was poured on the underlay gel and then the plates were incubated overnight at 37°C. The clear-zone diameters were measured to the nearest 0.1 mm and graphed against the peptide concentration. Zone diameters were expressed in units (0.1 mm = 1 unit). For the broth dilution assay, the Candida strains were cultured in LYM broth for 18 h at 30°C. The numbers of yeasts were counted using a hemocytometer. Stock peptide solutions were prepared to a concentration of 320 μg/ml in distilled water, and were then serially diluted twofold, to 5 μg/ml. 100 μl aliquots of the diluted culture media containing candida cells (1 x 10^3) were dispensed into the wells of 96-well polypropylene microtiter plates (Costar 3879, Corning, NY), to which peptide solution (11 μl) was then added. In the experiments conducted to assess the candidacidal activity of peptides in the presence of salt, we used LYM supplemented with 150 mM NaCl for the culture medium, which was mixed with the peptide solution. The antifungal activities were evaluated after 24 h of incubation at 30°C by the observation of visible turbidity the wells. The MIC values were expressed as intervals (a–b), with a representing the highest tested concentration at which microbes continue to grow, and b representing the lowest concentration at which growth inhibition could be detected.
To confirm the killing effect of the peptides, washed Candida cells (1 × 10^7 cells/ml) were treated with the peptides and propidium iodide (PI) was added. For energy depletion experiments, cells were pre-incubated with 10 mM NaPB containing 5 mM NaN3 at 30°C for 60 min before the addition of peptides. Propidium iodide (PI) uptake was measured using a multi reader and calculated with the formula [propidium iodide (PI) uptake value of peptide-treated cells—propidium iodide (PI) value of control cells]
Fig 6 The effects of azide on killing activity of peptides. […]

Row | Molecule | FITC intensity in Candida cells [1] | laminarin concentration at which antimicrobial activity was drastically decreased by pre-incubation [2] | antimicrobial activities in energy depleted cells [3]
1 | C[C@H](NC(=O)[C@H](Cc1c[nH]cn1)NC(=O)[C@H](CO)NC(=O)[C@@H](N)CC(=O)O)C(=O)N[C@@H](CCCCN)C(=O)N[C@@H](CCCNC(=N)N)C(=O)N[C@@H](Cc1c[nH]cn1)C(=O)N[C@@H](Cc1c[nH]cn1)C(=O)NCC(=O)N[C@@H](Cc1ccc(O)cc1)C(=O)N[C@@H](CCCCN)C(=O)N[C@@H](CCCNC(=N)N)C(=O)N[C@@H](CCCCN)C(=O)N[C@@H](Cc1ccccc1)C(=O)N[C@@H](Cc1c[nH]cn1)C(=O)N[C@@H](CCC(=O)O)C(=O)N[C@@H](CCCCN)C(=O)N[C@@H](Cc1c[nH]cn1)C(=O)N[C@@H](Cc1c[nH]cn1)C(=O)N[C@@H](CO)C(=O)N[C@@H](Cc1c[nH]cn1)C(=O)N[C@@H](CCCNC(=N)N)C(=O)NCC(=O)N[C@@H](Cc1ccc(O)cc1)C(=O)O [Hst 5, Histatin 5] | increased in a time dependent manner | 2.5 mg/mL | significantly reduced
2 | CC(C)C[C@H](NC(=O)CNC(=O)[C@H](Cc1c[nH]cn1)NC(=O)[C@H](Cc1c[nH]cn1)NC(=O)[C@H](CC(C)C)NC(=O)[C@H](CC(C)C)NC(=O)[C@H](C)NC(=O)[C@H](CC(N)=O)NC(=O)[C@H](CC(C)C)NC(=O)[C@@H](N)Cc1c[nH]c2ccccc12)C(=O)N[C@@H](CC(N)=O)C(=O)N[C@@H](CSSC[C@H](NC(=O)[C@H](CC(N)=O)NC(=O)[C@H](CC(C)C)NC(=O)CNC(=O)[C@H](Cc1c[nH]cn1)NC(=O)[C@H](Cc1c[nH]cn1)NC(=O)[C@H](CC(C)C)NC(=O)[C@H](CC(C)C)NC(=O)[C@H](C)NC(=O)[C@H](CC(N)=O)NC(=O)[C@H](CC(C)C)NC(=O)[C@@H](N)Cc1c[nH]c2ccccc12)C(=O)N[C@@H](C)C(=O)N[C@@H](CCCCN)C(=O)NCC(=O)N[C@H](C(=O)N[C@@H](CC(C)C)C(=O)N[C@@H](C)C(N)=O)C(C)C)C(=O)N[C@@H](C)C(=O)N[C@@H](CCCCN)C(=O)NCC(=O)N[C@H](C(=O)N[C@@H](CC(C)C)C(=O)N[C@@H](C)C(N)=O)C(C)C [di-18Hc, reference compound] (I: H-WLNALLHHGLNCAKGVLA-NH2 / II: H-WLNALLHHGLNCAKGVLA-NH2; disulfide I:12-II:12 (inferred); N-terminus assumed) | – | 0.3 mg/mL | not inhibited
3 | CC(C)C[C@H](NC(=O)CNC(=O)[C@H](Cc1c[nH]cn1)NC(=O)[C@H](Cc1c[nH]cn1)NC(=O)[C@H](CCCNC(=N)N)NC(=O)[C@H](CCCCN)NC(=O)[C@H](C)N)C(=O)N[C@@H](CC(N)=O)C(=O)N[C@@H](CSSC[C@H](NC(=O)[C@H](CC(N)=O)NC(=O)[C@H](CC(C)C)NC(=O)CNC(=O)[C@H](Cc1c[nH]cn1)NC(=O)[C@H](Cc1c[nH]cn1)NC(=O)[C@H](CCCNC(=N)N)NC(=O)[C@H](CCCCN)NC(=O)[C@H](C)N)C(=O)N[C@@H](C)C(=O)N[C@@H](CCCCN)C(=O)N[C@@H](Cc1ccccc1)C(=O)N[C@@H](Cc1c[nH]cn1)C(N)=O)C(=O)N[C@@H](C)C(=O)N[C@@H](CCCCN)C(=O)N[C@@H](Cc1ccccc1)C(=O)N[C@@H](Cc1c[nH]cn1)C(N)=O [di-PH2] (I: H-AKRHHGLNCAKFH-NH2 / II: H-AKRHHGLNCAKFH-NH2; disulfide I:9-II:9 (inferred); N-terminus assumed) | increased in a time dependent manner | 5 mg/mL | significantly reduced
4 | CC(C)C[C@H](NC(=O)[C@@H](N)Cc1c[nH]c2ccccc12)C(=O)N[C@@H](CC(N)=O)C(=O)N[C@@H](C)C(=O)N[C@@H](CCCCN)C(=O)N[C@@H](CCCNC(=N)N)C(=O)N[C@@H](Cc1c[nH]cn1)C(=O)N[C@@H](Cc1c[nH]cn1)C(=O)NCC(=O)N[C@@H](Cc1ccc(O)cc1)C(=O)N[C@@H](CCCCN)C(=O)N[C@@H](CSSC[C@H](NC(=O)[C@H](CCCCN)NC(=O)[C@H](Cc1ccc(O)cc1)NC(=O)CNC(=O)[C@H](Cc1c[nH]cn1)NC(=O)[C@H](Cc1c[nH]cn1)NC(=O)[C@H](CCCNC(=N)N)NC(=O)[C@H](CCCCN)NC(=O)[C@H](C)NC(=O)[C@H](CC(N)=O)NC(=O)[C@H](CC(C)C)NC(=O)[C@@H](N)Cc1c[nH]c2ccccc12)C(=O)N[C@@H](CCCCN)C(=O)N[C@@H](Cc1ccccc1)C(=O)N[C@@H](Cc1c[nH]cn1)C(N)=O)C(=O)N[C@@H](CCCCN)C(=O)N[C@@H](Cc1ccccc1)C(=O)N[C@@H](Cc1c[nH]cn1)C(N)=O [di-WP2] (I: H-WLNAKRHHGYKCKFH-NH2 / II: H-WLNAKRHHGYKCKFH-NH2; disulfide I:12-II:12 (inferred); N-terminus assumed) | – | 1.25 mg/mL | not inhibited
5 | AKRHHGYKRKFH-NH2 [P113] | increased in a time dependent manner | 5 mg/mL | significantly reduced
